This data set concerns CCRIS mutagenicity, Ames/micronucleus/aberration tests. Kind of data set: CCRIS mutagenicity studies. To be noted: Test System: AMES SALMONELLA TYPHIMURIUM, Method: STANDARD PLATE.

Here are results for 1 compound from PubChem BioAssay AID1259407 (Chemical Carcinogenesis Research Information System (CCRIS), 2018).

Calls of active or inactive are those of the source. No rule for the calls is given here.

`CC(=O)Nc1ccc(Oc2c(Cl)cc(Cl)cc2Cl)cc1`: the mutagenic call by setting is: (Strain/Indicator: TA98, Metabolic Activation: RAT, LIVER, S-9, AROCLOR 1254) “inactive; negative”; (Strain/Indicator: TA98, Metabolic Activation: S-9) “inactive; negative”; (Strain/Indicator: TA100, Metabolic Activation: NONE) “inactive; negative”; (Strain/Indicator: TA100, Metabolic Activation: RAT, LIVER, S-9, AROCLOR 1254) “active; positive”; (Strain/Indicator: TA100, Metabolic Activation: RAT, LIVER, S-9, KANECLOR 500) “active; positive”; (Strain/Indicator: TA100, Metabolic Activation: S-9) “active; positive”. Moreover, the mutagenic call is “inactive; negative” (Strain/Indicator: YG1021, Metabolic Activation: RAT, LIVER, S-9, AROCLOR 1254); “inactive; negative” (Strain/Indicator: YG1021, Metabolic Activation: S-9); “active; positive” (Strain/Indicator: YG1024, Metabolic Activation: RAT, LIVER, S-9, AROCLOR 1254); “active; positive” (Strain/Indicator: YG1024, Metabolic Activation: S-9); “active; positive” (Strain/Indicator: YG1026, Metabolic Activation: RAT, LIVER, S-9, AROCLOR 1254); “active; positive” (Strain/Indicator: YG1026, Metabolic Activation: S-9). Moreover, the mutagenic call is “active; positive” (Strain/Indicator: YG1029, Metabolic Activation: RAT, LIVER, S-9, AROCLOR 1254) and “active; positive” (Strain/Indicator: YG1029, Metabolic Activation: S-9).
